This is an account of results in patent publication US20250092044A1, “Kinase Inhibitors” (Incyte Corporation, priority 2023, published 2025).

Test [1] addresses pseudo-kinase domain (JH2) of human V617F mutant JAK2 (Homo sapiens (Human), UniProt O60674, F794H/V617F/W659A/W777A). Kind of test: JAK2 LanthaScreen JH2-V617F Binding Assay. The conditions noted are these: read-out: JH2 V617F Bind IC50. The method, then: JAK2 JH2-V617F binding assay utilizes pseudo-kinase domain (JH2, amino-acids 536-812 with 3 surface mutations W659A, W777A, F794H) of human V617F mutant JAK2 expressed as C-terminal His-Avi-tagged, biotinylated protein in a baculovirus expression system (BPS Bioscience, Catalog #79498). The assay was conducted in black 384-well polystyrene plates in a final reaction volume of 20 μL. JAK2 JH2-V617F (0.26 nM) was incubated with compounds (100 nL serially diluted in DMSO) in the presence of 50 nM Fluorescent JAK2-JH2 Tracer (MedChem Express Catalog #HY-102055) and 0.25 nM Streptavidin-Tb cryptate (Cisbio Part #610SATLB) in assay buffer (50 mM Tris, pH=7.5, 10 mM MgCl2, 0.01% Brij-35, 0.1% BSA, 1 mM EGTA, 5% Glycerol and 5 mM DTT). Non-specific binding was accessed in the presence of 2 mM ATP. After incubation for 1 hour at 25° C., LanthaScreen signals were read on a PHERAstar FS plate reader (BMG LABTECH). Data was analyzed with IDBS XLfit and GraphPad Prism 5.0 software using a four parameter dose response curve to determine IC50 for each compound.

The target of test [2] is catalytic domain (JH1) of human JAK2 (Homo sapiens (Human), UniProt O60674). Kind of test: JAK2 LanthaScreen JH1 Binding Assay. The conditions noted are these: read-out: JH1 Bind IC50. As for the experimental part:
JAK2 JH1 binding assay utilizes catalytic domain (JH1, amino acids 826-1132) of human JAK2 expressed as N-terminal FLAG-tagged, biotinylated protein in a baculovirus expression system (Carna Biosciences, Product #08-445-20N). The assay was conducted in black 384-well polystyrene plates in a final reaction volume of 20 μL. JAK2 JH1 (1.5 nM) was incubated with compounds (100 nL serially diluted in DMSO) in the presence of 50 nM fluorescent JAK2-JH1 tracer and 0.5 nM Streptavidin-Tb cryptate (Cisbio Part #610SATLB) in assay buffer (50 mM Tris, pH=7.5, 10 mM MgCl2, 0.01% Brij-35, 0.1% BSA, 1 mM EGTA, 5% Glycerol and 5 mM DTT). Non-specific binding was accessed in the presence of 2 mM ATP. After incubation for 2 hours at 25° C., LanthaScreen signals were read on a PHERAstar FS plate reader (BMG LABTECH). Data was analyzed with IDBS XLfit and GraphPad Prism 5.0 software using a four parameter dose response curve to determine IC50 for each compound.

Test [3] addresses FLT3 (Homo sapiens (Human), UniProt P36888). The experiment in a line: FLT3 Enzymatic Assay. The format is biochemical. The conditions noted are these: 1 mM ATP. As for the experimental part: (§1) The kinase assays were carried out at room temperature in assay buffer (HEPES 50 mM, pH 7.0, NaN3 0.02%, BSA 0.01%, Orthovanadate 0.1 mM, DTT 1 mM, MgCl2 10 mM) in a final volume of 10 μL. Testing compounds were prepared by serial dilution in DMSO and transferred to the plate wells by ECHO liquid handler (Labcyte) with 0.5% DMSO in the final assay. […]. Reactions were initiated by the addition of 5 μL ATP in assay buffer. The final 10 μL kinase reaction consists of 0.011 nM FLT3, 1 mM ATP, 500 nM TK Substrate-biotin and SEB reagent 62.5 nM in assay buffer. […] The plates were then sealed and centrifuged at 1800 rpm for 2 minutes. After 60 minutes incubation at room temperature, the product activity was determined by measuring the fluorescence at 620 nm and 665 nm on Pherastar microplate reader (BMG Labtech). A ratio is calculated (665/620 nm) for each well. Wells with DMSO only were served as the positive controls and wells containing no ATP were used as negative controls. IC50 determination was performed by fitting the curve of percent control activity versus the log of the compound concentration using the GraphPad Prism 7.0 software.

Test [4] has as its system FLT3. Kind of test: FLT3 Enzymatic Assay. The format is biochemical. As for the experimental part:
as §1

For test [5], the target named is TRKA (Homo sapiens (Human), UniProt P04629). Kind of test: TRKA Enzymatic Assay. The format is biochemical. The conditions noted are these: 1 mM ATP. The method, then: (§2) The kinase assays were carried out at 24° C. temperature in assay buffer (HEPES 50 mM, pH 7.0, NaN3 0.02%, BSA 0.01%, Orthovanadate 0.1 mM, DTT 1 mM, MgCl2 10 mM) in a final volume of 10 μL. Testing compounds were prepared by serial dilution in DMSO and transferred to the plate wells by ECHO liquid handler (Labcyte) with 0.5% DMSO in the final assay. […]. Reactions were initiated by the addition of 5 μL ATP in assay buffer. The final 10 μL kinase reaction consisted of 0.58 nM TRKA, 1 mM ATP, 500 nM TK Substrate-biotin and SEB reagent 62.5 nM in assay buffer. […] After 60 minutes incubation at room temperature, the product activity was determined by measuring the fluorescence at 620 nm and 665 nm on Pherastar microplate reader (BMG Labtech). A ratio was calculated (665/620 nm) for each well. Wells with DMSO only served as the positive controls and wells containing no ATP were used as negative controls. IC50 determination was performed by fitting the curve of percent control activity versus the log of the compound concentration using the Gene data.

Test [6] concerns TRKA. Kind of test: TRKA Enzymatic Assay. The format is biochemical. As for the experimental part: as §2
In test [7] the test system is STAT5 (Tyr694) phosphorylation in SET-2 cells. Kind of test: STAT5 (Tyr694) Phosphorylation Cell Based Assay. The conditions noted are these: Homo sapiens, 2 hours, read-out: SET2 IC50. The method, then:
SET-2 cells was purchased from DSMZ (Germany). RPMI1640 medium, Fetal Bovine Serum and 384-white sold flat-bottom small volume plate were purchased from Thermo Fisher Scientific (Waltham, MA). Phospho-STAT5 (Tyr694) HTRF kit was purchased from Perkin Elmer (Waltham, MA).
SET-2 cells were cultured in RPMI media with 20% FBS at 37° C. in humidified incubator supplied with 5% CO2. On the day of assay, the cells were centrifuged to remove the culture media and resuspended with prewarmed RPMI with 10% FBS. Testing compounds were prepared by serial dilution in DMSO and 50 nL/well test compounds were transferred to the 384 white low volume cell culture plate (Greiner Bio-one) by ECHO liquid handler (Labcyte). The cells were then dispensed with Multidrop (Thermo Fisher, Waltham, MA) at 10 μL/well (7×10^6 cells/mL) with 0.5% DMSO in the final assay. After the treated cells were incubated for 2 hours at 37° C./5% CO2 incubator, 4 μL/well supplemented lysis buffer (100× blocking buffer diluted 25 fold in 4× lysis buffer, Perkin Elmer) were added and incubated at room temperature for 90 min on orbital shaker at 600 rpm. Phospho-STAT5 Cryptate antibody and Phospho-STAT5 d2 antibody (1:1 vol/vol) were premixed and diluted 20 fold with in the detection buffer (Perkin Elmer). 4 μL of the premixed antibody solution were added to each well followed with 24 hours incubation at room temperature on orbital shaker at 600 rpm. The product activity was determined by measuring the fluorescence at 620 nm and 665 nm on Pherastar microplate reader (BMG Labtech). A ratio is calculated (665/620) for each well. Wells with DMSO only served as the positive controls and wells containing high concentration of control compound were used as negative controls. IC50 determination was performed by fitting the curve of percent control activity versus the log of the compound concentration using the GraphPad Prism 7.0 software.

Chain of FLT3 (Homo sapiens (Human), UniProt P36888) (P36888 27-993, species assumed): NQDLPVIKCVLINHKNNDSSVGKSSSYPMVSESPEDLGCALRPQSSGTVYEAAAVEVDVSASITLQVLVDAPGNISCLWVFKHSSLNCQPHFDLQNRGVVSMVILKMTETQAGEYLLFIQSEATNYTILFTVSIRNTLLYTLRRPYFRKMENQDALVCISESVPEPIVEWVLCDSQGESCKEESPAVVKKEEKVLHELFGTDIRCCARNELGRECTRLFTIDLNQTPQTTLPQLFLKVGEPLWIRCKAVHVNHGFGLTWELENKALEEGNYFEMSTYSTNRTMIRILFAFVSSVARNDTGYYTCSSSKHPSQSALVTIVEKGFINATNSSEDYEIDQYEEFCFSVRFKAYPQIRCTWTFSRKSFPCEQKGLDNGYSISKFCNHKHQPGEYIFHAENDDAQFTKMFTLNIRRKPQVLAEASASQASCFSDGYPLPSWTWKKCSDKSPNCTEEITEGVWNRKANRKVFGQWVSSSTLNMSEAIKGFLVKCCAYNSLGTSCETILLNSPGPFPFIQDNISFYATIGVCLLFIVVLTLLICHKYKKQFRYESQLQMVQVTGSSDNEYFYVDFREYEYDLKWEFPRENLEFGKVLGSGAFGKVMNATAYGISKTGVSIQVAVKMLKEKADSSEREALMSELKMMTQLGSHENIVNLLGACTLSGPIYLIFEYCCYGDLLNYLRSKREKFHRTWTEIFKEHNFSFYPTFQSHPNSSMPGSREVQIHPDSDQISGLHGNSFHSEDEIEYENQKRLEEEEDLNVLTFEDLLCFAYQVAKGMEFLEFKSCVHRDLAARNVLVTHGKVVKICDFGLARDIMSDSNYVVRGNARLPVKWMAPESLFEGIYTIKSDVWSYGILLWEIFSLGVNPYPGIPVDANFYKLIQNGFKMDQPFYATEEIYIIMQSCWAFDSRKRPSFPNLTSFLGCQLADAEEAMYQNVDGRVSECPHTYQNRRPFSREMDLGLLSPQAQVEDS
Chain of TRKA (Homo sapiens (Human), UniProt P04629) (P04629 33-796, species assumed): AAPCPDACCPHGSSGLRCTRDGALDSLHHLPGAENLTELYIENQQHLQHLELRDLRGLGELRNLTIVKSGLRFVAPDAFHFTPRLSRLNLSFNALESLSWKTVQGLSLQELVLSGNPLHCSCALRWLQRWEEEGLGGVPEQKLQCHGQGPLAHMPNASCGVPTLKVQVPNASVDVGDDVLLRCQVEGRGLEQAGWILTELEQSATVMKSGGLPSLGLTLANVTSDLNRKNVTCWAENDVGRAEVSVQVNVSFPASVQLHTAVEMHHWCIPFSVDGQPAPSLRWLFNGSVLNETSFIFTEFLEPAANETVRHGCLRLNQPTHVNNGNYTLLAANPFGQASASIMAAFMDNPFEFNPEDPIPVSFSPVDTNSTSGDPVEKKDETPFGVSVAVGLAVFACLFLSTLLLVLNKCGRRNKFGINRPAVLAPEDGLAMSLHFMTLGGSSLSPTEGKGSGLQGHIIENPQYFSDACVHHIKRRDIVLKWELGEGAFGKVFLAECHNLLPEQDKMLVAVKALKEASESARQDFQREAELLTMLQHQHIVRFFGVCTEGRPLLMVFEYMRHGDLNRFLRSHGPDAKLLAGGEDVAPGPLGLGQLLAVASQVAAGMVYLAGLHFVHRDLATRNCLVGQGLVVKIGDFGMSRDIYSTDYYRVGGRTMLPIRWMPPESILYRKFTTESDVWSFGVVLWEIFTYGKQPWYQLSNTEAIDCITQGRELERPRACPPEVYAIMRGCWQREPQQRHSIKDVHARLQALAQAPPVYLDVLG
Chain of pseudo-kinase domain (JH2) of human V617F mutant JAK2 (O60674 536-812 V617F/W659A/W777A/F794H): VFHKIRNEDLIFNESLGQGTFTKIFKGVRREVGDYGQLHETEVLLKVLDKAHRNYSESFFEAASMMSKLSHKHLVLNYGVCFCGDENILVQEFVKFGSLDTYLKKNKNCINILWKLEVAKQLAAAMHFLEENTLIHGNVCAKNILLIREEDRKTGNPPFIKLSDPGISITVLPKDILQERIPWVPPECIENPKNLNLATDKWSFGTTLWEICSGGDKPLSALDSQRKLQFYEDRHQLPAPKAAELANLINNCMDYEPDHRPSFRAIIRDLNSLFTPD
Chain of catalytic domain (JH1) of human JAK2 (O60674 826-1132): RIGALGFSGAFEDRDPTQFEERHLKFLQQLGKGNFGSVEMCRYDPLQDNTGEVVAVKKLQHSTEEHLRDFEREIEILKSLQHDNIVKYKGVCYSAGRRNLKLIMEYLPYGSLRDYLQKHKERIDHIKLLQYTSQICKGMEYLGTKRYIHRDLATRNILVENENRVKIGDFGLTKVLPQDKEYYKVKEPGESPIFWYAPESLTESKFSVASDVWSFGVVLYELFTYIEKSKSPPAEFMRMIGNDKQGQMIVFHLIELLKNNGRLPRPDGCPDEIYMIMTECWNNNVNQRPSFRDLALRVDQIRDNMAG

As for `COC(=O)N[C@@H]1CC[C@@H](n2c(=O)n(C)c3cnc4[nH]c(-c5ccc(C(=O)N6C7CCC6COC7)c(OC)c5)c(-c5cccc(F)c5)c4c32)C1` [Example 5, Methyl ((1R,3R)-3-(7-(4-(3-oxa-8-azabicyclo[3.2.1]octane-8-carbonyl)-3-methoxyphenyl)-8-(3-fluorophenyl)-3-methyl-2-oxo-3,6-dihydroimidazo[4,5-d]pyrrolo[2,3-b]pyridin-1(2H)-yl)cyclopentyl)carbamate], the IC50 in test [1] was no more than 0.01 µM; in test [2], greater than 1 µM; against FLT3 [3], 1.25 to 2.5 µM; at TRKA [5], 0.25 to 1.25 µM; in test [7], greater than 0.8 µM. Besides, the “Selectivity FLT3/JH2 V617F” value in the test on FLT3 [4] is “***** (selectivity of >5000-fold to ≤12500-fold)”. Further, the “Selectivity TRKA/JH2 V617F” value in the test with TRKA [6] is “** (selectivity of >500-fold to ≤1500-fold)”.

Turning to `COC(=O)N[C@@H]1CC[C@@H](n2c(=O)n(C)c3cnc4[nH]c(-c5ccc(C(=O)NCCCNc6ccccc6)c(F)c5)c(-c5ccc6c(cnn6C(C)C)c5)c4c32)C1` [Example 7, Methyl ((1R,3R)-3-(7-(3-fluoro-4-((3-(phenylamino)propyl)carbamoyl)phenyl)-8-(1-isopropyl-1H-indazol-5-yl)-3-methyl-2-oxo-3,6-dihydroimidazo[4,5-d]pyrrolo[2,3-b]pyridin-1(2H)-yl)cyclopentyl)carbamate], the IC50 was no more than 0.01 µM in test [1]; greater than 1 µM in test [2]; greater than 2.5 µM against FLT3 [3]; greater than 2.5 µM against TRKA [5]; greater than 0.8 µM in test [7]. In the test with FLT3 [4], the “Selectivity FLT3/JH2 V617F” value was “***** (selectivity of >5000-fold to ≤12500-fold)”. Further, the “Selectivity TRKA/JH2 V617F” value in the test with TRKA [6] was “***** (selectivity of >5000-fold to ≤12500-fold)”.

As for `CCNC(=O)c1ccc(-c2[nH]c3ncc4c(c3c2-c2ccc3c(cnn3C(C)C)c2)n([C@@H]2CC[C@@H](NC(=O)OC)C2)c(=O)n4C)cc1OC` [Example 18, Methyl ((1R,3R)-3-(7-(4-(ethylcarbamoyl)-3-methoxyphenyl)-8-(1-isopropyl-1H-indazol-5-yl)-3-methyl-2-oxo-3,6-dihydroimidazo[4,5-d]pyrrolo[2,3-b]pyridin-1(2H)-yl)cyclopentyl)carbamate], the concentration for half-maximal inhibition (IC50) is no more than 0.01 µM in test [1]; greater than 1 µM in test [2]; 0.25 to 1.25 µM at FLT3 [3]; 1.25 to 2.5 µM on TRKA [5]; no more than 0.3 µM in test [7]. In the test with FLT3 [4], the “Selectivity FLT3/JH2 V617F” value is “**** (selectivity of >1750-fold to ≤5000-fold)”. In addition, in the test with TRKA [6], the “Selectivity TRKA/JH2 V617F” value is recorded as “***** (selectivity of >5000-fold to ≤12500-fold)”.

Take `COCCNC(=O)c1ccc(-c2[nH]c3ncc4c(c3c2-c2ccc3c(cnn3C(C)C)c2)n([C@@H]2CC[C@@H](NC(=O)OC)C2)c(=O)n4C)cc1` [Example 19, Methyl ((1R,3R)-3-(8-(1-isopropyl-1H-indazol-5-yl)-7-(4-((2-methoxyethyl)carbamoyl)phenyl)-3-methyl-2-oxo-3,6-dihydroimidazo[4,5-d]pyrrolo[2,3-b]pyridin-1(2H)-yl)cyclopentyl)carbamate]: the IC50 in test [1] was no more than 0.01 µM; in test [2], greater than 1 µM; against FLT3 [3] it was 0.25 to 1.25 µM; on TRKA [5] it was 1.25 to 2.5 µM; in test [7], no more than 0.3 µM. The “Selectivity FLT3/JH2 V617F” value with FLT3 [4] is listed as “**** (selectivity of >1750-fold to ≤5000-fold)”. Also, the “Selectivity TRKA/JH2 V617F” value in the test with TRKA [6] is reported as “****** (selectivity of >12500-fold)”.

On to `COC(=O)N[C@@H]1CC[C@@H](n2c(=O)n(C)c3cnc4[nH]c(-c5ccc(C(=O)N6CCOCC6)cc5)c(-c5ccc6c(cnn6C(C)C)c5)c4c32)C1` [Example 20, Methyl ((1R,3R)-3-(8-(1-isopropyl-1H-indazol-5-yl)-3-methyl-7-(4-(morpholine-4-carbonyl)phenyl)-2-oxo-3,6-dihydroimidazo[4,5-d]pyrrolo[2,3-b]pyridin-1(2H)-yl)cyclopentyl)carbamate], for which the IC50 in test [1] is no more than 0.01 µM; in test [2], greater than 1 µM; against FLT3 [3], 0.25 to 1.25 µM; against TRKA [5] it was 0.25 to 1.25 µM; in test [7] it was no more than 0.3 µM. For the same molecule, the “Selectivity FLT3/JH2 V617F” value with FLT3 [4] is given as “***** (selectivity of >5000-fold to ≤12500-fold)”. Moreover, in the test with TRKA [6], the “Selectivity TRKA/JH2 V617F” value is on record as “***** (selectivity of >5000-fold to ≤12500-fold)”.

On to `COC(=O)N[C@@H]1CC[C@@H](n2c(=O)n(C)c3cnc4[nH]c(-c5ccc(C(=O)N(C)C)cc5)c(-c5ccc6c(cnn6C(C)C)c5)c4c32)C1` [Example 22, Methyl ((1R,3R)-3-(7-(4-(dimethylcarbamoyl)phenyl)-8-(1-isopropyl-1H-indazol-5-yl)-3-methyl-2-oxo-3,6-dihydroimidazo[4,5-d]pyrrolo[2,3-b]pyridin-1(2H)-yl)cyclopentyl)carbamate], for which the IC50 was no more than 0.01 µM in test [1]; greater than 1 µM in test [2]; 0.25 to 1.25 µM at FLT3 [3]; 0.25 to 1.25 µM against TRKA [5]; no more than 0.3 µM in test [7]. Moreover, the “Selectivity FLT3/JH2 V617F” value in the test with FLT3 [4] was “***** (selectivity of >5000-fold to ≤12500-fold)”. In addition, the “Selectivity TRKA/JH2 V617F” value in the test on TRKA [6] is “***** (selectivity of >5000-fold to ≤12500-fold)”.
